Measured values reported in patent US8901147B2, “Bi-heteroaryl compounds as Vps34 inhibitors” (Novartis AG, priority 2010, dated 2014).

Target: recombinant human Vps34 (Homo sapiens, UniProt Q8NEB9)
Assay: Vps34 KinaseGlo assay
Format: biochemical
Settings: KinaseGlo luminescence ATP detection; PI/OG substrate; 1 μM ATP; room temperature; 8 concentrations, n=2
Method: It was then resuspended in 3% OctylGlucoside by vortexing and stored at 4° C. 5 μL of a mix of PI/OG with recombinant human Vps34 were added. Kinase reactions were started by addition of 5 μl of ATP-mix containing in a final volume 10 μL 10 mM TRIS-HCl pH 7.5, 3 mM MgCl2, 50 mM NaCl, 0.05% CHAPS, 1 mM DTT and 1 μM ATP, and occurred at room temperature. Reactions were stopped with 10 μl of KinaseGlo and plates were read 10 minutes later in a Synergy2 reader using an integration time of 0.1 seconds per well.

Chain of recombinant human Vps34 (Q8NEB9 whole entry): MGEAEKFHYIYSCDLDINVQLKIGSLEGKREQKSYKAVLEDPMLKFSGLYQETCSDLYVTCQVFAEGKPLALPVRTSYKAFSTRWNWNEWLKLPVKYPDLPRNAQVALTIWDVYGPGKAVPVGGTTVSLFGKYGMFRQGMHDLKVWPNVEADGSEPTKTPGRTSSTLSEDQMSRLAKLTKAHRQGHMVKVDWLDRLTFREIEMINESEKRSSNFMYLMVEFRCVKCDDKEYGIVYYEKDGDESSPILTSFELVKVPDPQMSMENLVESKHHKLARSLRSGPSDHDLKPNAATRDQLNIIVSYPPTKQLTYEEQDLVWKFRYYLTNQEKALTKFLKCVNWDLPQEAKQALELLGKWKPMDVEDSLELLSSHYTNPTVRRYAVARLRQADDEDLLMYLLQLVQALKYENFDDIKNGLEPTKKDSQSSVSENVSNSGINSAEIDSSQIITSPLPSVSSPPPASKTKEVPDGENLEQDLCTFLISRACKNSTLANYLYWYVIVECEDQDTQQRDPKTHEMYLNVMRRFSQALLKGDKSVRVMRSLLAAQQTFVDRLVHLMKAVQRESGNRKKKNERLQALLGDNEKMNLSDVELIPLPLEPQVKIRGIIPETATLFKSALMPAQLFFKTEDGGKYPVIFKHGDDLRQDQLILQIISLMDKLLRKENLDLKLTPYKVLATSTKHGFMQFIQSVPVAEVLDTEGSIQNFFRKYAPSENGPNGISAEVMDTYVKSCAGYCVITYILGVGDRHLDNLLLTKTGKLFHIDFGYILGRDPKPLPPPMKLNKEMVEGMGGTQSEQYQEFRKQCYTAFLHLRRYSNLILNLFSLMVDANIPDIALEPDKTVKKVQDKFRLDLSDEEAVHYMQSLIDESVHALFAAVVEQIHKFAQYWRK

| Molecule | IC50 |
| --- | --- |
| Nc1ncc(-c2ccnc(Nc3ccncc3)n2)c(COCc2ccccc2)n1 [Example 13, 4′-Benzyloxymethyl-N^2-pyridin-4-yl-[4,5′]bipyrimidinyl-2,2′-diamine] | 7 nM |
| CC(C)Nc1ncc(-c2ccnc(Nc3ccncc3)n2)c(CC2CC2)n1 [Example 12a, 4′-Cyclopropylmethyl-N^2′-isopropyl-N^2-pyridin-4-yl-[4,5′]bipyrimidinyl-2,2′-diamine] | 34.5 nM |
| c1ccc(CNc2ncc(-c3ccnc(Nc4ccncc4)n3)c(CC3CC3)n2)cc1 [Example 10c, N^2′-benzyl-4′-(cyclopropylmethyl)-N^2-(pyridin-4-yl)-4,5′-bipyrimidine-2,2′-diamine] | 75.5 nM |
| CNc1ncc(-c2ccnc(NC3CCC(N)CC3)n2)c(CC2CC2)n1 (stereo not shown) [Example 14j, N^2-(4-aminocyclohexyl)-4′-(cyclopropylmethyl)-N^2′-methyl-4,5′-bipyrimidine-2,2′-diamine] | 411 nM |
| CC(C)(O)CNc1ncc(-c2ccnc(Nc3ccc(C#N)cc3)n2)c(C(F)(F)F)n1 [Example 25, 4-(2′-(2-hydroxy-2-methylpropylamino)-4′-(trifluoromethyl)-4,5′-bipyrimidin-2-ylamino)benzonitrile] | 117 nM |
| CC(O)CNc1ncc(-c2ccnc(Nc3ccncc3)n2)c(CC2CC2)n1 (stereo not shown) [Example 10j, 1-(4′-(cyclopropylmethyl)-2-(pyridin-4-ylamino)-4,5′-bipyrimidin-2′-ylamino)propan-2-ol] | 29 nM |
| CCC(C)Nc1ncc(-c2ccnc(Nc3ccncc3)n2)c(CC2CC2)n1 (stereo not shown) [Example 10s, N^2′-sec-butyl-4′-(cyclopropylmethyl)-N^2-(pyridin-4-yl)-4,5′-bipyrimidine-2,2′-diamine] | 51.5 nM |
| COc1ncc(-c2ccnc(Nc3ccncc3)n2)c(CC2CC2)n1 [Example 10u, 4′-(cyclopropylmethyl)-2′-methoxy-N-(pyridin-4-yl)-4,5′-bipyrimidin-2-amine] | 90.5 nM |
| CNc1ncc(-c2ccnc(N[C@H]3CC[C@H](NC(=O)OC(C)(C)C)CC3)n2)c(CC2CC2)n1 [Example 14i, tert-butyl (1r,4r)-4-(4′-(cyclopropylmethyl)-2′-(methylamino)-4,5′-bipyrimidin-2-ylamino)cyclohexylcarbamate] | 348 nM |
| (S)-1-[4′-Cyclopropylmethyl-2-(pyridin-4-ylamino)-[4,5]bipyrimidinyl-2′-ylamino]-propan-2-ol [Example 10k] | 276 nM |
| c1cc(Nc2nccc(-c3cnc(NC4CCC4)nc3CC3CC3)n2)ccn1 [Example 10f, N^2′-cyclobutyl-4′-(cyclopropylmethyl)-N^2-(pyridin-4-yl)-4,5′-bipyrimidine-2,2′-diamine] | 45.5 nM |
| CNc1ncc(-c2ccnc(NCCCN)n2)c(CC2CC2)n1 [Example 14s, N^2-(3-aminopropyl)-4′-(cyclopropylmethyl)-N^2′-methyl-4,5′-bipyrimidine-2,2′-diamine] | 7130 nM |
| CNc1ncc(-c2ccnc(Nc3cc(OC)cc(OC)c3)n2)c(CC2CC2)n1 [Example 14p, 4′-(cyclopropylmethyl)-N^2-(3,5-dimethoxyphenyl)-N^2′-methyl-4,5′-bipyrimidine-2,2′-diamine] | 5170 nM |
| CNc1ncc(-c2ccnc(Nc3ccc(OC)cc3)n2)c(CC2CC2)n1 [Example 14m, 4′-(cyclopropylmethyl)-N^2-(4-methoxyphenyl)-N^2′-methyl-4,5′-bipyrimidine-2,2′-diamine] | 119 nM |
| CNc1ncc(-c2ccnc(NC3CCC(O)CC3)n2)c(CC2CC2)n1 (stereo not shown) [Example 14k, 4-(4′-(cyclopropylmethyl)-2′-(methylamino)-4,5′-bipyrimidin-2-ylamino)cyclohexanol] | 857 nM |
| CC(C)(O)CNc1ncc(-c2ccnc(Nc3ccncc3)n2)c(C(F)(F)F)n1 [Example 24, 2-methyl-1-(2-(pyridin-4-ylamino)-4′-(trifluoromethyl)-4,5′-bipyrimidin-2′-ylamino)propan-2-ol] | 96 nM |
| CNc1ncc(-c2ccnc(NC3CCN(C)CC3)n2)c(CC2CC2)n1 [Example 14r, 4′-(cyclopropylmethyl)-N^2′-methyl-N^2-(1-methylpiperidin-4-yl)-4,5′-bipyrimidine-2,2′-diamine] | 1540 nM |
| CNc1ncc(-c2ccnc(NC3CCCCC3)n2)c(CC2CC2)n1 [Example 14e, N^2-Cyclohexyl-4′-cyclopropylmethyl-N^2′-methyl-[4,5′]bipyrimidinyl-2,2′-diamine] | 1100 nM |
| CNc1ncc(-c2ccnc(Nc3cccnc3)n2)c(CC2CC2)n1 [Example 14l, 4′-(cyclopropylmethyl)-N^2′-methyl-N^2-(pyridin-3-yl)-4,5′-bipyrimidine-2,2′-diamine] | 48 nM |
| c1cc(Nc2nccc(-c3cnc(NC4CCOCC4)nc3CC3CC3)n2)ccn1 [Example 10g, 4′-(cyclopropylmethyl)-N^2-(pyridin-4-yl)-N^2′-(tetrahydro-2H-pyran-4-yl)-4,5′-bipyrimidine-2,2′-diamine] | 236 nM |
| CC(C)(O)CNc1ncc(-c2ccnc(Nc3ccncc3)n2)c(CC2CC2)n1 [Example 10t, 1-(4′-(cyclopropylmethyl)-2-(pyridin-4-ylamino)-4,5′-bipyrimidin-2′-ylamino)-2-methylpropan-2-ol] | 15 nM |

Continued, values first:

| IC50 | Molecule |
| --- | --- |
| 25 nM | Nc1ncc(-c2ccnc(Nc3ccc4[nH]ccc4c3)n2)c(CC2CC2)n1 [Example 15l, 4′-(cyclopropylmethyl)-N^2-(1H-indol-5-yl)-4,5′-bipyrimidine-2,2′-diamine] |
| 196 nM | Nc1ncc(-c2ccnc(Nc3ccccn3)n2)c(CC2CC2)n1 [Example 15e, 4′-(cyclopropylmethyl)-N^2-(pyridin-2-yl)-4,5′-bipyrimidine-2,2′-diamine] |
| 31 nM | CCc1nc(NCC(C)(C)O)ncc1-c1ccnc(Nc2ccc(C#N)cc2)n1 [Example 37a, 4-(4′-ethyl-2′-(2-hydroxy-2-methylpropylamino)-4,5′-bipyrimidin-2-ylamino)benzonitrile] |
| 101 nM | Nc1ncc(-c2ccnc(Nc3ccc4c(c3)OCO4)n2)c(CC2CC2)n1 [Example 15m, N^2-(benzo[d][1,3]dioxol-5-yl)-4′-(cyclopropylmethyl)-4,5′-bipyrimidine-2,2′-diamine] |
| 122 nM | Nc1ncc(-c2ccnc(NCCc3c[nH]c4ccccc34)n2)c(CC2CC2)n1 [Example 15p, N^2-(2-(1H-indol-3-yl)ethyl)-4′-(cyclopropylmethyl)-4,5′-bipyrimidine-2,2′-diamine] |
| 53 nM | Nc1ncc(-c2ccnc(Nc3ccc(F)cc3)n2)c(CC2CC2)n1 [Example 15j, 4′-(cyclopropylmethyl)-N^2-(4-fluorophenyl)-4,5′-bipyrimidine-2,2′-diamine] |
| 150 nM | CC(C)(O)CNc1ncc(-c2ccnc(Nc3ccc(F)cc3)n2)c(CC2CC2)n1 [Example 16c, 1-(4′-(cyclopropylmethyl)-2-(4-fluorophenylamino)-4,5′-bipyrimidin-2′-ylamino)-2-methylpropan-2-ol] |
